Values of other authors as cited in patent publication US11733243B2, “Use of acamprosate to modulate ERK1/2 activation in animal models for FXS and ASD and individuals diagnosed with FXS and ASD” (Indiana University Research and Technology Corporation, priority 2013, dated 2023).

Key:
[1] = tested on: adult males diagnosed with FXS; conditions: 3 adult males, cited from earlier work
[2] = tested on: youths symptomatic for an autistic disorder; conditions: mean dose 1,110 mg/day, 10 to 30 weeks; cited from earlier work
[3] = tested on: extracellular dopamine; conditions: rats; dependent on glycine receptor activation; cited from earlier work

For `CC(=O)NCCCS(=O)(=O)O` [Acamprosate, 3-Acetamidopropane-1-sulfonic acid], the “clinical response measured by the CGI-I” value ([1]; mean dose 1,221 mg/day, mean duration 21.3 weeks) is listed as “all 3 subjects showed significant positive clinical response”, the “subjects with non-treatment limiting gastrointestinal distress (emesis and/or nausea)” value [1] is listed as “Two” and the “youths judged treatment responders” value [2] is listed as “five of six”. For the same compound, the “extracellular dopamine levels in the nucleus accumbens” value [3] was “elevates extracellular dopamine levels in the nucleus accumbens”.
